{"source": "patent US7291600B2", "about": "“Non-T cell binding peptides and their uses” (priority 2002, dated 2007)", "key": {"[1]": {"tested_on": "collagen-induced arthritis (CIA) in Wistar rats", "assay": "Collagen-induced arthritis (CIA) induced by bovine CII, treated by subcutaneous peptide injection", "type": "in vivo", "settings": "for suppression / alleviation of arthritis in rats: CIA rats, result in words", "method": "In the animal experiment protocol of the present invention, collagen-induced arthritis (CIA) in Wistar rats was induced by bovine CII. The non-T cell binding peptides of the present invention were used to treat the arthritis rats.\nThe experimental arthritis model used in the present invention is collagen-induced arthritis (CIA) which is recognized internationally. The experimental animals used were American Wistar rats, which belong to a blocking colony. They were cultured successfully by Wistar Institute of USA in 1907. They are among the species that were introduced into our country earliest and were used most widely. The rats used in this experiment were all cultured in the animal center of People's Hospital, Peking University (SPF degree II). The rats were cultured in the polyacylene cages cushioned by serrago. The lightness/darkness cycle was maintained as 12 h/12 h. The water and food were freely available to the rats. All the rats used in the experiment were male, 8-10 weeks of age, body weight 180±10 g. All the protocols related to animals in the experiment were in accordance with Chinese Experimental Animal Regulations.\nThe bovine type II collagen (catalogue number: C11188) was bought from Sigma Co. Ltd. It was dissolved in acetic acid to make a solution with the final concentration of 8 mg/ml. Then the solution was emulsified with complete Freund's adjuvant (Detroit, USA) of the equal volume. 100 μl of the emulsified solution was injected into the footpad of the right limb of each Wistar rat. The injection dose was […]. Thus the arthritis model of Wistar rats was successfully established.\nThe swelling of metatarsophalangeal joints and interphalangeal joints was found on all the rats about 15 days after the induction of arthritis in Wistar rats with CII. A 0-16 scale was used to evaluate the extent of arthritis. Each of the 4 paws was assigned a score using a 0-4 scale, wherein zero=no joint swelling, 1=swelling of one joint, 2=swelling of 2 joints, 3=swelling of 3 joints, and 4=swelling of 4 joints, which is the swelling of the whole paw. Four paws were scored respectively, and these scores were summed up to give a total score. Beginning 2 days after the immunization, the rats were subjected to an inspection every day until the experiment had been finished.\n(§1) The arthritis rats were randomly divided into 4 groups from Day 4 to Day 7 after arthritis induced therein. There were 3 treatment groups and one control group. Each group consisted of 10 rats. Non-T cell binding peptide 267A was subcutaneously injected into the base of tail of each rat every 3 days. The peptides were dissolved in sterile distilled water before injection. The concentrations used in the 3 treatment groups were 100 μg/ml, 500 μg/ml and 1000 μg/ml respectively, 100 μl for each rat, and the control group received sterile distilled water only. The volume change of right feet was measured by water-expelling method every day. Using the aforementioned method of arthritis evaluation, the arthritis scores were given every day based on the number of joints with arthritis. The rats were killed 18 days after treatment. The peripheral blood was collected. The serum concentrations of the respective cytokines were detected using ELISA kits of TNFα and IL-2 (JingMei Biotech Co. Ltd, ShenZhen, P.R.C). In the meanwhile, the joints of the right limb were detached, fixed, decalcified, sectioned and subjected to HE staining."}, "[2]": {"tested_on": "collagen-induced arthritis (CIA) in Wistar rats", "assay": "Collagen-induced arthritis (CIA) induced by bovine CII, treated by subcutaneous peptide injection", "type": "in vivo", "settings": "for number of swollen joints, Average: * significantly reduced compared with the control group (p < 0.01), control 6.2"}, "TNFα": {"tested_on": "TNFα", "assay": "TNFα concentration in peripheral blood of CIA rats (ELISA)", "type": "in vivo, Wistar rats", "method": "as §1"}, "[3]": {"tested_on": "T cell activation (L57.23 cell with 3.19 cell; Priess cell with 3838 cell)", "assay": "T cell activation assay: antigen presenting cells, peptide and T cell clones co-incubated; IL-2 in supernatant read by CTLL proliferation (MTT)", "type": "cell-based", "settings": "for inhibition of the T cell activation effects of wild type DRβ1 binding peptide: co-incubated with wild type peptide and T cell activation system, concentration dependent, FIG. 4"}, "[4]": {"tested_on": "T cell activation (L57.23 cell with 3.19 cell; Priess cell with 3838 cell)", "assay": "T cell activation assay: antigen presenting cells, peptide and T cell clones co-incubated; IL-2 in supernatant read by CTLL proliferation (MTT)", "type": "cell-based", "settings": "FIG. 3; for effect (stimulation) on T cell activation compared with wild type CII peptide: peptide alone with antigen presenting cells and T cells, 48 hours", "excerpt": "Antigen polypeptides are expressed through antigen presenting cells and activate T cells, resulting in the production of inflammation factors in vivo, and further resulting in the typical pathologic changes of rheumatoid arthritis. In the experiment, the inhibition effects of non-T cell binding peptides on T cell activation were detected by measuring T cell proliferation and Interleukin (IL)-2 level. Two sets of systems of antigen presenting and T cell activation, which are recognized internationally, are used in the research.\nWherein one set of antigen presenting and T cell activation system is composed of L57.23 cell and 3.19 cell, and the other set of system is composed of Priess cell and 3838 cell. By comparing the difference in the effects of said seven non-T cell binding peptides on antigen presenting and T cell activation, non-T cell binding peptides which have significant inhibition effect(s) on T cell activation were screened.\nFirstly, the antigen presenting cells, different non-T cell binding peptides (10 μg/ml) and corresponding T cells were added into the reaction system and co-incubated at 37° C. for 48 hours. The supernatant was obtained and added into well-grown IL-2 dependent cells (CTLL). The CTLL cell proliferation was detected by using titrazolium salt method (MTT). Thus the inhibition effects of non-T cell binding peptides on T cell activation were determined."}, "[5]": {"settings": "50 mg group, right hind foot, individual rats"}, "[6]": {"settings": "Day 8, 10, 12 and 14, three treatment groups 100, 500, 1000 μg/ml, 100 μl s.c. every 3 days"}, "[7]": {"settings": "10 mg group, right hind foot, individual rats"}}, "note": "“And” between values parts separate entries of the source, which are not always exact repeats. Equal entries are not always repeated. “Also recorded” adds a separate entry of the source. No end group written: not given here. *: point of attachment. Myristoyl = CCCCCCCCCCCCCC(=O)*", "data": [{"substance": "FKGEAGPKGE (Myristoyl-FKGEAGPKGE) [267A, amino-terminal linked to myristic acid]", "values": [{"measurement": "number of swollen joints", "setting": "[1]; [5]", "result": "4 (2×) and 6 (2×) and 2 and 1 (3×) and 3 (2×)"}, {"measurement": "swelling of the right feet", "setting": "[1]; 3 treatment groups, within the first 2 weeks after treatment", "result": "alleviated"}, {"measurement": "difference among the 3 treatment groups in right foot swelling ratios and arthritis scores", "setting": "[1]; 100, 500 and 1000 μg/ml groups, Day 8, 10, 12 and 14", "result": "no significant difference"}, {"measurement": "suppression / alleviation of arthritis in rats", "setting": "[1]", "result": "significant effects; also recorded: significantly suppress arthritis in rats and alleviate the swelling of joints, and shorten the disease course; also recorded: significantly alleviated"}, {"measurement": "arthritis score vs control group", "setting": "[1]; [6]", "result": "significantly lower"}, {"measurement": "swelling ratio of right feet vs control group", "setting": "[1]; [6]", "result": "significantly lower"}, {"measurement": "remission ratio of CIA vs control group", "setting": "[1]; three treatment groups, Day 8 and Day 16 after treatment, p<0.05", "result": "remission ratio(s) of CIA in the control group are significantly lower than that in the three treatment groups; also recorded: significantly higher"}, {"measurement": "number of swollen joints, Average", "setting": "[2]; 10 mg group average", "result": "3.15*"}, {"measurement": "Hind foot volume", "setting": "[2]; [7]", "result": "1.2 ml (2×) and 1.5 ml and 1.4 ml and 1.3 ml (5×) and 1.1 ml"}, {"measurement": "number of swollen joints", "setting": "[2]; [7]", "result": "2 (2×) and 4 (3×) and 3 (2×) and 1 (2×) and 6"}, {"measurement": "number of swollen joints, Average", "setting": "[2]; 50 mg group average", "result": "3.25*"}, {"measurement": "Hind foot volume", "setting": "[2]; [5]", "result": "1.4 ml (5×) and 1.7 ml and 1.3 ml and 1.1 ml and 1.6 ml (2×)"}, {"measurement": "concentration of TNFα in peripheral blood vs control group", "setting": "TNFα; 100 μg/ml treated group, p<0.05, FIG. 7", "result": "significantly lower"}, {"measurement": "concentration of TNFα in peripheral blood vs control group", "setting": "TNFα; the other two treatment groups (500 and 1000 μg/ml)", "result": "No significant variety"}, {"measurement": "inhibition of the T cell activation effects of wild type DRβ1 binding peptide", "setting": "[3]", "result": "significant effects"}]}, {"substance": "FKGEGAGAGE (Myristoyl-FKGEGAGAGE) [Mut 267-270, amino-terminal linked to myristic acid]", "values": [{"measurement": "effect (stimulation) on T cell activation compared with wild type CII peptide", "setting": "[4]", "result": "none of polypeptides Mut 267-270, Mut 268-270, Mut 269-270, 269A and 270A has significant effect on T cell activation"}, {"measurement": "suppression / alleviation of arthritis in rats", "setting": "[1]", "result": "significant effects"}, {"measurement": "inhibition of the T cell activation effects of wild type DRβ1 binding peptide", "setting": "[3]", "result": "significant effects"}]}, {"substance": "FKGEQAGAGE (Myristoyl-FKGEQAGAGE) [Mut 268-270, amino-terminal linked to myristic acid]", "values": [{"measurement": "effect (stimulation) on T cell activation compared with wild type CII peptide", "setting": "[4]", "result": "none of polypeptides Mut 267-270, Mut 268-270, Mut 269-270, 269A and 270A has significant effect on T cell activation"}]}, {"substance": "FKGEQGAAGE (Myristoyl-FKGEQGAAGE) [Mut 269-270, amino-terminal linked to myristic acid]", "values": [{"measurement": "effect (stimulation) on T cell activation compared with wild type CII peptide", "setting": "[4]", "result": "none of polypeptides Mut 267-270, Mut 268-270, Mut 269-270, 269A and 270A has significant effect on T cell activation"}]}, {"substance": "FKGEQGAKGE (Myristoyl-FKGEQGAKGE) [269A, amino-terminal linked to myristic acid]", "values": [{"measurement": "effect (stimulation) on T cell activation compared with wild type CII peptide", "setting": "[4]", "result": "none of polypeptides Mut 267-270, Mut 268-270, Mut 269-270, 269A and 270A has significant effect on T cell activation"}]}, {"substance": "FKGEQGPAGE (Myristoyl-FKGEQGPAGE) [270A, amino-terminal linked to myristic acid]", "values": [{"measurement": "effect (stimulation) on T cell activation compared with wild type CII peptide", "setting": "[4]", "result": "none of polypeptides Mut 267-270, Mut 268-270, Mut 269-270, 269A and 270A has significant effect on T cell activation"}]}, {"substance": "wild type DRβ1 binding peptide: wild type CII263-272 polypeptide (F K G E Q G P K G E), contains the antigen epitope of Collagen type II (FKGEQGPKGE) [reference compound]", "values": [{"measurement": "concentration of IL-2 in the supernatant", "setting": "[4]; non-T cell binding peptides compared with wild type peptide, p<0.01", "result": "high concentration of IL-2"}, {"measurement": "stimulation of T cell proliferation", "setting": "[3]; at 400, 200, 80, 40 and 20 μg/ml", "result": "able to stimulate T cell proliferation"}]}]}
